Measured values as given in publication PMC4227718 (Journal of the American Chemical Society, 2014).

How the values were obtained:
Pin1 = Pin1 (Homo sapiens, UniProt Q13526, S16A/Y23A); assay: Fluorescence anisotropy binding to Pin1
HeLa cells = assay: MTT cell proliferation assay; format: cell-based; details: 0-20 μM, 72 h

bicyclo[Tm(D-Ala-Sar-D-Thr-D-Ala-Nal-Arg-Ala-D-Ala)-Dap-(Phe-Nal-Arg-Arg-Arg-Arg-Dap)]-Lys-NH2 [peptide 9]
Pin1 inhibitory activity (Pin1): abolished the Pin1 inhibitory activity | Effect on HeLa cell growth (HeLa cells): no effect
